The record followed here is patent US10653676B2 (Dana-Farber Cancer Institute, Inc., priority 2010, dated 2020).

One test addresses T1, UCH-L1 (Homo sapiens, UniProt P09936).
T1 sequence (P09936 1-223): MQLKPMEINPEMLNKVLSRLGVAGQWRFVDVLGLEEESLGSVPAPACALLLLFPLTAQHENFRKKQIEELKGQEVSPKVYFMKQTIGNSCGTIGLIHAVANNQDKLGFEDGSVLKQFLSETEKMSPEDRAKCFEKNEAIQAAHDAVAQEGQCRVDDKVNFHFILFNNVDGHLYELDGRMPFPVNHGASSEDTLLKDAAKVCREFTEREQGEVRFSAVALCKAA
Nature of the test: ubiquitin-AMC assay with UCH-L1. It counts as biochemical. As to conditions: in vitro. On the procedure:
FIG. 6 is a composite figure showing that C527 is a pan-deubiqutinating enzyme inhibitor […]. Ubiquitin-AMC assay was performed using purified (FIG. 6A) USP12/UAF1/WDR20 (FIG. 6B) USP5 and (FIG. 6C) UCH-L1. Enzymes were incubated with DMSO or C527 at indicated concentrations for 3 h, followed by the addition of Ub-AMC at 0.5 μM final concentration. The fluorescence at […] was measured to indicate the enzymatic activity. FIG. 6D is a summary showing the IC50 of C527 against the indicated enzymes.
The in vitro enzymatic assays were performed using purified proteins from Sf9 cells as described previously (Cohn et al.). The assays using ubiquitin-AMC (Ub-7-amido-4-methylcoumarin; Boston Biochem) as substrate was carried out in a reaction buffer containing 20 mM HEPES-KOH (pH 7.8), 20 mM NaCl, 0.1 mg/ml ovalbumin, 0.5 mM EDTA and 10 mM dithiothreitol. The fluorescence was measured by FluoStar Galaxy Fluorometer (BMG Labtech). For the Ub-vinylsulfone (VS) assay, the proteins were incubated with Ub-VS at 0.5 μM final concentration for 1 h at 30° C., followed by the immunoblotting analysis.
To examine the specificity of C527 in USP1/UAF1 inhibition, its ability to inhibit other DUB enzymes in vitro was examined. […] Moreover, the active complex of USP12 contains an additional WD40 subunit (WDR20). […]

For test [1], the system named is endogenous DUB enzyme complexes. Nature of the test: HA-Ub-VS labelling of other endogenous DUBs in HeLa cell extracts. Type of test: biochemical, human. Particulars: HeLa cell extracts pretreated 4 h (Ub-Ald 5 μM), then Ub-VS 40 min at 30° C.; FIG. 7. On the procedure:
FIG. 7 is a composite figure depicting preferential inhibition of the activity of native USP1/UAF1 by C527. HeLa cell extracts were incubated with ubiquitin-aldehyde (Ub-Ald, 5 μM) or C527 at indicated concentrations for 4 h, followed by the addition of 0.5 μM Ub-Vs for 40 min. The reaction was split into two aliquots and subjected to immunoblotting for HA or USP1, respectively.
The ability of C527 to inhibit the deubiquitinating activity of native USP1 complexes derived from human cells was determined next (FIG. 7). For this purpose, the HA-tagged ubiquitin-VS, an affinity reagent known to covalently modify and trap active DUB enzymes in cell extracts was used. Cell extracts prepared from HeLa cells were pretreated with increasing concentrations of C527 for 4 h, followed by the incubation with Ub-VS for 40 min at 30° C. The enzymatic activity of endogenous DUBs was indicated by the conjugation of Ub-VS, detected as HA-labeling (see FIG. 7, high molecular weight bands). […] Ub-VS conjugation was inhibited by ubiquitin-aldehyde (Ub-Ald), a non-specific inhibitor of DUBs (lane 3).

As for `O=C1c2ccccc2C(=O)c2oc(-c3ccc(F)cc3)nc21` [Formula IV (527)], the “inhibitory effect on UCH-L1” value against UCH-L1 is listed as “considerably less inhibitory effect”. Also, the “Ub-VS labeling of endogenous DUBs (HA-labeling)” value in test [1] is reported as “failed to inhibit”.
